In patent US9938273B2 (Plexxikon Inc., priority 2015, dated 2018):
pIC50: −log10 of the molar value. Each block holds one compound with its values, some of them ahead of it.

Legend:
FLT3-ITD = target: T1, FLT3-ITD (Homo sapiens, UniProt P36888); experiment: AlphaScreen kinase assay with recombinant enzyme, FLT3-ITD; format: biochemical; conditions: 8pt; read-out: FLT3_ITD 8pt: IC50
T1 sequence (P36888 1-993): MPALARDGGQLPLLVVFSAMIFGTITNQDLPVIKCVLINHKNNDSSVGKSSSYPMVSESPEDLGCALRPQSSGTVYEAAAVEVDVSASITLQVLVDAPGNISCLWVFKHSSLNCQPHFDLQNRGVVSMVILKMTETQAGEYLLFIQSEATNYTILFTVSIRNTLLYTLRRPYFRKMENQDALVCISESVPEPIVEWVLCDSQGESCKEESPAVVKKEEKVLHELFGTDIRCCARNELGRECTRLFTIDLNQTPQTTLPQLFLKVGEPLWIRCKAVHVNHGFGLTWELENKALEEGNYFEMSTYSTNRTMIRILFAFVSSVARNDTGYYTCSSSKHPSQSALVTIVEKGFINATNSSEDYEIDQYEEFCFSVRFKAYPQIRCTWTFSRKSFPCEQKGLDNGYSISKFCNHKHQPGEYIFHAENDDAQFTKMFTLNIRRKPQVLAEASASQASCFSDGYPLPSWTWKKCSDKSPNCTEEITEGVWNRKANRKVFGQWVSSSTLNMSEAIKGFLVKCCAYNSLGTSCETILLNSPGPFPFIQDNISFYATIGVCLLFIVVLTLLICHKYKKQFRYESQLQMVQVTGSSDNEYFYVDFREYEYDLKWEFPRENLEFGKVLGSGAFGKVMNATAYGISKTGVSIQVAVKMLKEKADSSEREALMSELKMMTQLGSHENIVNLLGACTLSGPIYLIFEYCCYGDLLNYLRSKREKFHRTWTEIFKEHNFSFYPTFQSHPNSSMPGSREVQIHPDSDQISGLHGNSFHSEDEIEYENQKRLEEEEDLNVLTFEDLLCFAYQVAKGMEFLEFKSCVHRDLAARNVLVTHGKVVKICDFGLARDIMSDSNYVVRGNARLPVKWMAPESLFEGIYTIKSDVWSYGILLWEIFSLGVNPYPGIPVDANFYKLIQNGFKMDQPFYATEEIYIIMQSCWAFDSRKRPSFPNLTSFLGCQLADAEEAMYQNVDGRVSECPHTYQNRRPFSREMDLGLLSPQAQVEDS
Outline: (§1)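 Tyrosine phosphorylation of biotin-poly(Glu4-Tyr) substrate by recombinant enzyme is detected with PY20 acceptor and streptavidin donor beads after room-temperature incubations of 20 and 60 min. IC50 values were derived at a final 10 μM (FLT3-D835Y, FLT3-ITD) or 100 μM (c-KIT).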

FLT3-D835Y = target: T2, FLT3-D835Y (Homo sapiens, UniProt P36888, D835Y); experiment: AlphaScreen kinase assay with recombinant enzyme, FLT3-D835Y; format: biochemical; conditions: 8pt, GMean
T2 construct: purchased Invitrogen PV3967
T2 sequence (P36888 27-993 D835Y): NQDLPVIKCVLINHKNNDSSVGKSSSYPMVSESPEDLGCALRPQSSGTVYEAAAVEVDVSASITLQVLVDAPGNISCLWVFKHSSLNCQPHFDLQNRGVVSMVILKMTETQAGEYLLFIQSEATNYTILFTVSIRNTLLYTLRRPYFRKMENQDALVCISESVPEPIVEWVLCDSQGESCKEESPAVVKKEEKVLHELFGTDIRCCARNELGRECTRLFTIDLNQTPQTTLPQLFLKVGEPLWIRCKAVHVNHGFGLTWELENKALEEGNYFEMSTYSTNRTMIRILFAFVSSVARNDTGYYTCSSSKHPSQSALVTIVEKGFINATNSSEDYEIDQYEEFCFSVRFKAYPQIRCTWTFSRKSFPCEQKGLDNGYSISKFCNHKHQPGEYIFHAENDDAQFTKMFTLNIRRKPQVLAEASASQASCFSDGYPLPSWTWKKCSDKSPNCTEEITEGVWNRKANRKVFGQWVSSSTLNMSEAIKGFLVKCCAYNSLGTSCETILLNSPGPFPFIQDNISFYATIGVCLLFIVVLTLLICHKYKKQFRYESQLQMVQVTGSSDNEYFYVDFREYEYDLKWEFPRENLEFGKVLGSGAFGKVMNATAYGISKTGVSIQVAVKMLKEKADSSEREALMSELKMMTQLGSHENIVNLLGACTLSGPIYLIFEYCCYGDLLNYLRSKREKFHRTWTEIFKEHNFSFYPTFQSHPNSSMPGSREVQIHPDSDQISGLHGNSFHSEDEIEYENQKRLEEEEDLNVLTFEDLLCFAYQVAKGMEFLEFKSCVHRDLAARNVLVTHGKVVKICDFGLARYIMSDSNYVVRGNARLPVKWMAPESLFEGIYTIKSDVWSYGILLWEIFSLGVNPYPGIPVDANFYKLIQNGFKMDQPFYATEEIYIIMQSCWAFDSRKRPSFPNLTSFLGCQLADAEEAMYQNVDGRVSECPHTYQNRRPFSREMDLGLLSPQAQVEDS
Outline: as §1

SMILES: CCCOc1ncc(-c2cc3cc(-c4cccc(C(=O)NC(C)(C)C#N)n4)cnc3[nH]2)cn1 [Compound P-0206, N-(1-cyano-1-methyl-ethyl)-6-[2-(2-propoxypyrimidin-5-yl)-1H-pyrrolo[2,3-b]pyridin-5-yl]pyridine-2-carboxamide]
- pIC50 (FLT3-ITD): 5.00 to 10.00
- pIC50 (FLT3-D835Y): 5.00 to 10.00

SMILES: CC(C)(NC(=O)c1cccc(-c2cnc3[nH]c(-c4cnn(C5CCNCC5)c4)cc3c2)n1)C(N)=O [Compound P-0200, N-(2-amino-1,1-dimethyl-2-oxo-ethyl)-6-[2-[1-(4-piperidyl)pyrazol-4-yl]-1H-pyrrolo[2,3-b]pyridin-5-yl]pyridine-2-carboxamide]
- pIC50 (FLT3-ITD): 5.00 to 10.00
- pIC50 (FLT3-D835Y): 5.00 to 10.00

SMILES: CN(C)CC#Cc1cc2cc(-c3cccc(S(=O)(=O)NC4CC4)c3)cnc2[nH]1 [Compound P-0009, N-cyclopropyl-3-[2-[3-(dimethylamino)prop-1-ynyl]-1H-pyrrolo[2,3-b]pyridin-5-yl]benzenesulfonamide]
- pIC50 (FLT3-D835Y): 5.00 to 10.00

SMILES: CN1CC(NC(=O)c2cccc(-c3cnc4[nH]c(-c5ccccc5)cc4c3)n2)C1 [Compound P-0075, N-(1-methylazetidin-3-yl)-6-(2-phenyl-1H-pyrrolo[2,3-b]pyridin-5-yl)pyridine-2-carboxamide]
- pIC50 (FLT3-ITD): 5.00 to 10.00
- pIC50 (FLT3-D835Y): 5.00 to 10.00

SMILES: CC(C)(C)OC(=O)NC1CCN(C(=O)c2n[nH]c3ccc(-c4cnc5[nH]c(-c6ccccc6)cc5c4)cc23)CC1 [Compound P-0011, tert-butyl N-[1-[5-(2-phenyl-1H-pyrrolo[2,3-b]pyridin-5-yl)-1H-indazole-3-carbonyl]-4-piperidyl]carbamate]
- pIC50 (FLT3-D835Y): 5.00 to 10.00

SMILES: O=S(=O)(NC1CC1)c1cccc(-c2cnc3[nH]c(C#CC4CCCCC4)cc3c2)c1 [Compound P-0010, 3-[2-(2-cyclohexylethynyl)-1H-pyrrolo[2,3-b]pyridin-5-yl]-N-cyclopropyl-benzenesulfonamide]
- pIC50 (FLT3-D835Y): 4.00 to 4.30

SMILES: O=S(=O)(NC1CC1)c1cccc(-c2cnc3[nH]c(C#Cc4ccccc4)cc3c2)c1 [Compound P-0014, N-cyclopropyl-3-[2-(2-phenylethynyl)-1H-pyrrolo[2,3-b]pyridin-5-yl]benzenesulfonamide]
- pIC50 (FLT3-D835Y): 4.00 to 4.30

SMILES: O=S(=O)(NC1CC1)c1cccc(-c2cnc3[nH]c(C#CCO)cc3c2)c1 [Compound P-0008, N-cyclopropyl-3-[2-(3-hydroxyprop-1-ynyl)-1H-pyrrolo[2,3-b]pyridin-5-yl]benzenesulfonamide]
- pIC50 (FLT3-D835Y): 5.00 to 10.00

Next, values leading:

- pIC50 (FLT3-ITD): 5.00 to 10.00
- pIC50 (FLT3-D835Y): 5.00 to 10.00
SMILES: Cc1nn(C(C)C)cc1-c1[nH]c2ncc(-c3cccc(C(=O)NC(C)(C)C#N)n3)cc2c1Cl [Compound P-0192]

- pIC50 (FLT3-ITD): 5.00 to 10.00
- pIC50 (FLT3-D835Y): 5.00 to 10.00
SMILES: CC(C)(C#N)NC(=O)c1cccc(-c2cnc3[nH]c(C4=CCS(=O)(=O)CC4)cc3c2)n1 [Compound P-0186, N-(1-cyano-1-methyl-ethyl)-6-[2-(1,1-dioxo-3,6-dihydro-2H-thiopyran-4-yl)-1H-pyrrolo[2,3-b]pyridin-5-yl]pyridine-2-carboxamide]

- pIC50 (FLT3-ITD): 5.00 to 10.00
- pIC50 (FLT3-D835Y): 5.00 to 10.00
SMILES: COc1ncc(-c2cc3cc(-c4cccc(C(=O)NC(C)(C)C#N)n4)cnc3[nH]2)cn1 [Compound P-0196, N-(1-cyano-1-methyl-ethyl)-6-[2-(2-methoxypyrimidin-5-yl)-1H-pyrrolo[2,3-b]pyridin-5-yl]pyridine-2-carboxamide]

- pIC50 (FLT3-ITD): 5.00 to 10.00
- pIC50 (FLT3-D835Y): 5.00 to 10.00
SMILES: NC1(C(F)(F)F)CCN(C(=O)c2cccc(-c3cnc4[nH]c(-c5ccccc5)cc4c3)n2)C1 (stereo not shown) [Compound P-0077, [3-amino-3-(trifluoromethyl)pyrrolidin-1-yl]-[6-(2-phenyl-1H-pyrrolo[2,3-b]pyridin-5-yl)-2-pyridyl]methanone]

- pIC50 (FLT3-ITD): 5.00 to 10.00
- pIC50 (FLT3-D835Y): 5.00 to 10.00
SMILES: CC1(N)CCN(C(=O)c2cccc(-c3cnc4[nH]c(-c5ccccc5)cc4c3)n2)C1 (stereo not shown) [Compound P-0078, (3-amino-3-methyl-pyrrolidin-1-yl)-[6-(2-phenyl-1H-pyrrolo[2,3-b]pyridin-5-yl)-2-pyridyl]methanone]

- pIC50 (FLT3-ITD): 5.00 to 10.00
- pIC50 (FLT3-D835Y): 5.00 to 10.00
SMILES: CC(C)(C#N)NC(=O)c1cccc(-c2cnc3[nH]c(-c4cccc(N5CCCS5(=O)=O)c4)cc3c2)n1 [Compound P-0199, N-(1-cyano-1-methyl-ethyl)-6-[2-[3-(1,1-dioxo-1,2-thiazolidin-2-yl)phenyl]-1H-pyrrolo[2,3-b]pyridin-5-yl]pyridine-2-carboxamide]

- pIC50 (FLT3-ITD): 5.00 to 10.00
- pIC50 (FLT3-D835Y): 5.00 to 10.00
SMILES: CC(C)(C#N)NC(=O)c1cccc(-c2cnc3[nH]c(-c4cnc(N5CCOCC5)nc4)cc3c2)n1 [Compound P-0198, N-(1-cyano-1-methyl-ethyl)-6-[2-(2-morpholinopyrimidin-5-yl)-1H-pyrrolo[2,3-b]pyridin-5-yl]pyridine-2-carboxamide]

- pIC50 (FLT3-ITD): 5.00 to 10.00
- pIC50 (FLT3-D835Y): 5.00 to 10.00
SMILES: CC(C)(C#N)NC(=O)c1cccc(-c2cnc3[nH]c(-c4cnn(C(F)F)c4)c(Cl)c3c2)n1 [Compound P-0185, 6-[3-chloro-2-[1-(difluoromethyl)pyrazol-4-yl]-1H-pyrrolo[2,3-b]pyridin-5-yl]-N-(1-cyano-1-methyl-ethyl)pyridine-2-carboxamide]

- pIC50 (FLT3-ITD): 5.00 to 10.00
- pIC50 (FLT3-D835Y): 5.00 to 10.00
SMILES: CC(C)(C#N)NC(=O)c1cccc(-c2cnc3[nH]c(-c4cncnc4)cc3c2)n1 [Compound P-0195, N-(1-cyano-1-methyl-ethyl)-6-(2-pyrimidin-5-yl-1H-pyrrolo[2,3-b]pyridin-5-yl)pyridine-2-carboxamide]

- pIC50 (FLT3-ITD): 5.00 to 10.00
- pIC50 (FLT3-D835Y): 5.00 to 10.00
SMILES: CC(C)(C#N)NC(=O)c1cccc(-c2cnc3[nH]c(-c4cnn(CC(F)(F)F)c4)cc3c2)n1 [Compound P-0193, N-(1-cyano-1-methyl-ethyl)-6-[2-[1-(2,2,2-trifluoroethyl)pyrazol-4-yl]-1H-pyrrolo[2,3-b]pyridin-5-yl]pyridine-2-carboxamide]

- pIC50 (FLT3-ITD): 5.00 to 10.00
- pIC50 (FLT3-D835Y): 5.00 to 10.00
SMILES: CC(C)(C#N)NC(=O)c1cccc(-c2cnc3[nH]c(-c4cnn(C(=O)C5CC5)c4)cc3c2)n1 [Compound P-0184, N-(1-cyano-1-methyl-ethyl)-6-[2-[1-(cyclopropanecarbonyl)pyrazol-4-yl]-1H-pyrrolo[2,3-b]pyridin-5-yl]pyridine-2-carboxamide]

- pIC50 (FLT3-ITD): 5.00 to 10.00
- pIC50 (FLT3-D835Y): 5.00 to 10.00
SMILES: CC(C)Oc1ncc(-c2cc3cc(-c4cccc(C(=O)NC(C)(C)C#N)n4)cnc3[nH]2)cn1 [Compound P-0191, N-(1-cyano-1-methyl-ethyl)-6-[2-(2-isopropoxypyrimidin-5-yl)-1H-pyrrolo[2,3-b]pyridin-5-yl]pyridine-2-carboxamide]

- pIC50 (FLT3-ITD): 5.00 to 10.00
- pIC50 (FLT3-D835Y): 5.00 to 10.00
SMILES: CC(C)(C#N)NC(=O)c1cccc(-c2cnc3[nH]c(-c4cnc(N5CCCC5)nc4)cc3c2)n1 [Compound P-0202, N-(1-cyano-1-methyl-ethyl)-6-[2-(2-pyrrolidin-1-ylpyrimidin-5-yl)-1H-pyrrolo[2,3-b]pyridin-5-yl]pyridine-2-carboxamide]
